Data reported in ChEMBL document CHEMBL1201862, “PubChem BioAssay data set” (2004).
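All cell lines were grown in 96-well plates and treated with compound for 48 hours. Here, GI50 denotes the concentration required for 50% inhibition of growth.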 The source made the active and inactive calls. Cut-off read from the data, not from the text of the source: active = GI50 up to about 1.1 µM and inactive = higher.

Columns and labels:
Assay in all cases: DTP human tumour cell line panel, 48 h
[1] = system: UACC-257
[2] = system: EKVX
[3] = system: A549
[4] = system: MDA-MB-231
[5] = system: NCI-H23
[6] = system: SN12C
[7] = system: HCC 2998
[8] = system: MCF7
[9] = system: BT-549
[10] = system: HCT-116
[11] = system: MDA-N
[12] = system: ACHN
[13] = system: U-251
[14] = system: T47D
[15] = system: OVCAR-5
[16] = system: SK-MEL-28
[17] = system: MOLT-4
[18] = system: NCI-H522
[19] = system: NCI/ADR-RES

Row | Structure (SMILES) | GI50 [1] | GI50 [2] | GI50 [3] | GI50 [4] | GI50 [5] | GI50 [6] | GI50 [7] | GI50 [8] | GI50 [9] | GI50 [10] | GI50 [11] | GI50 [12] | GI50 [13] | GI50 [14] | GI50 [15] | GI50 [16] | GI50 [17] | GI50 [18] | GI50 [19]
1 | O=C1C(Cl)=C(NCCF)C(=O)c2ncccc21 | 1.62 µM (inactive) | 1.68 µM (inactive) | 1.89 µM (inactive) | 1.9 µM (inactive) | 1.6 µM (inactive) | 1.91 µM (inactive) | 1.36 µM (inactive) | 1.72 µM (inactive) | 1.63 µM (inactive) | 1.76 µM (inactive) | 0.2 µM (active) | 2.19 µM (inactive) | 1.46 µM (inactive) | 2.2 µM (inactive) | 1.88 µM (inactive) | 1.87 µM (inactive) | 1.55 µM (inactive) |  | 
2 | CCC(=O)Nc1cccc(NC(=O)c2c(Cl)c(Cl)c(Cl)c(Cl)c2-c2nc3ccccc3[nH]2)c1 | 59 µM (inactive) | 52.8 µM (inactive) | 0.0851 µM (active) |  | > 100 µM (inactive) | > 100 µM (inactive) | 49.7 µM (inactive) | 12.7 µM (inactive) | 87.3 µM (inactive) | 7.82 µM (inactive) | 22 µM (inactive) | 80.7 µM (inactive) |  | 7.82 µM (inactive) | > 100 µM (inactive) | > 100 µM (inactive) | 22.8 µM (inactive) | 56.2 µM (inactive) | > 100 µM (inactive)
3 | COc1cn2c(cc1=O)COc1ccc(-c3ccccc3)cc1-2 | 41 µM (inactive) | 36 µM (inactive) | 39.6 µM (inactive) |  | 45.5 µM (inactive) | 77.3 µM (inactive) | 46.9 µM (inactive) | 21.1 µM (inactive) | 24.7 µM (inactive) | 40 µM (inactive) | 49.5 µM (inactive) | 48.4 µM (inactive) | 65.2 µM (inactive) | 20.5 µM (inactive) | > 96.2 µM (inactive) | > 100 µM (inactive) | 44.5 µM (inactive) | 27.9 µM (inactive) | 49.9 µM (inactive)
4 | CCOC(=O)C(=[N+]=[N-])C(=O)CN1C(=O)c2ccccc2C1=O | > 100 µM (inactive) | > 100 µM (inactive) | > 100 µM (inactive) | > 100 µM (inactive) | > 100 µM (inactive) | > 100 µM (inactive) | > 100 µM (inactive) | > 100 µM (inactive) | > 100 µM (inactive) | > 100 µM (inactive) | > 100 µM (inactive) | > 100 µM (inactive) | > 100 µM (inactive) | > 100 µM (inactive) | > 100 µM (inactive) | > 100 µM (inactive) | > 100 µM (inactive) | > 100 µM (inactive) | 
5 | COc1cccc(/C=C2\CCCCCC2=O)c1 | > 100 µM (inactive) | > 100 µM (inactive) | > 100 µM (inactive) | > 100 µM (inactive) | > 100 µM (inactive) | > 100 µM (inactive) | > 100 µM (inactive) |  | > 100 µM (inactive) | 80.7 µM (inactive) | > 100 µM (inactive) | > 100 µM (inactive) | 65.3 µM (inactive) | > 100 µM (inactive) | > 100 µM (inactive) | > 100 µM (inactive) | 71.9 µM (inactive) | > 100 µM (inactive) | 
6 | O=S(=O)(Nc1nccs1)c1ccc(Nc2nc(-c3cccs3)nc3ccc(I)cc23)cc1 | 4.49 µM (inactive) | 2.22 µM (inactive) | 26.7 µM (inactive) |  | 37.4 µM (inactive) | 25.4 µM (inactive) | 13.2 µM (inactive) | 8.28 µM (inactive) | 11.9 µM (inactive) | 8.97 µM (inactive) | 32.5 µM (inactive) | 29.6 µM (inactive) | 11.5 µM (inactive) | 8.43 µM (inactive) | 40.2 µM (inactive) | 21.4 µM (inactive) | 14.2 µM (inactive) | 19.4 µM (inactive) | > 75.5 µM (inactive)
